According to patent US20260007133A1, “HERBICIDAL COMPOSITION COMPRISING AZINE COMPOUNDS” (BASF SE, priority 2022, published 2026):

Columns and labels:
Format in all cases: in vivo
Abutilon theophrasti [1] = assay: Greenhouse pre-emergence (PRE) herbicidal test on ABUTH; details: PRE; for % activity: ABUTH, 18 DAT
Summary of the method: (§1)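 Seeds were sown per species in pots of loamy sand with about 3.0% humus, treated pre-emergence, watered and hooded until rooted. Plants grew at 10-25° C or 20-35° C depending on species. Damage was scored 0-100 (100 = no emergence or above-ground parts destroyed) at 20 DAT.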

Alopecurus myosuroides = assay: Greenhouse pre-emergence (PRE) herbicidal test on ALOMY; details: PRE; for % activity: ALOMY, 18 DAT
Summary of the method: as §1

Amaranthus retroflexus [2] = assay: Greenhouse pre-emergence (PRE) herbicidal test on AMARE; details: PRE; for % activity: AMARE, 18 DAT
Experimental: (§2) The culture containers used were plastic pots containing loamy sand with approximately 3.0% of humus as substrate. The seeds of the test plants were sown separately for each species.
The containers were irrigated gently to promote germination and growth and subsequently covered with transparent plastic hoods until the plants had rooted.
(§3) Depending on the species, the plants were kept at 10-25° C. and 20-35° C., respectively.
(§4) The test period extended over 2 to 4 weeks. During this time, the plants were tended and their response to the individual treatments was evaluated.
(§5) Evaluation was carried out using a scale from 0 to 100. 100 means no emergence of the plants, or complete destruction of at least the above-ground parts, and 0 means no damage or normal course of growth. A good herbicidal activity is given at values of at least 70, and very good herbicidal activity is given at values of at least 85.
As indicated application was either post emergent (POST) at the respective growth stage (GS) of the weed (BBCH code), or pre-emergent (PRE). […]

Ambrosia artemisiifolia = assay: Greenhouse pre-emergence (PRE) herbicidal test on AMBEL; details: Ambrosia artemisiifolia, pre-emergence, 480 h, PRE, 20 DAT
Commelina benghalensis = assay: Greenhouse pre-emergence (PRE) herbicidal test on COMBE; details: PRE; for % activity: COMBE, 18 DAT
Summary of the method: as §1

Euphorbia heterophylla [3] = assay: Greenhouse pre-emergence (PRE) herbicidal test on EPHHL; details: PRE; for % activity: EPHHL, 18 DAT
Summary of the method: as §1

Lolium multiflorum = assay: Greenhouse pre-emergence (PRE) herbicidal test on LOLMU; details: PRE; for % activity: LOLMU, 18 DAT
Summary of the method: as §1

Abutilon theophrasti [4] = assay: Greenhouse post-emergence (POST) herbicidal test on ABUTH; details: POST; for % activity: ABUTH, 18 DAT
Summary of the method: (§6)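 Injury was rated visually on a 0–100 scale, where 0 is normal growth and 100 is complete above-ground kill, 20 days after treatment. Test plants at 3–15 cm height received a post-emergence spray of water-dispersed active from 5% emulsion concentrates. Pots held loamy sand with ~3.0% humus, at 10-25 °C or 20-35 °C depending on species.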

Amaranthus retroflexus [5] = assay: Greenhouse post-emergence (POST) herbicidal test on AMARE; details: POST
Summary of the method: as §6

Ipomoea hederacea = assay: Greenhouse post-emergence (POST) herbicidal test on IPOHE; details: Ipomoea hederacea, post-emergence, 480 h, POST, 20 DAT
Experimental: as §2
For the post-emergence treatment, the test plants were grown to a plant height of from 3 to 15 cm, depending on the plant habit, and only then treated with the active compounds which had been suspended or emulsified in water. To this end, the test plants were either sown directly, and grown in the same containers, or they were first grown separately as seedlings and transplanted into the test containers a few days prior to treatment.
as §3, §4, §5
If not stated differently, the respective components A and B, and if appropriate, C were formulated as a 5% by weight strength emulsion concentrate and, with addition of the amount of solvent system, introduced into the spray liquor used for applying the active compound.
As indicated application was either post emergent (POST) at the respective growth stage (GS) of the weed (BBCH code), or pre-emergent (PRE).
Assessment was 20 days after treatment (DAT).

Setaria viridis = assay: Greenhouse pre-emergence (PRE) herbicidal test on SETVI; details: PRE
Summary of the method: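 Seeds sown per species in pots of loamy sand with approx. 3.0% humus; compounds suspended or emulsified in water were sprayed via fine nozzles directly after sowing. Pots were watered and hooded until rooted, held at 10-25° C. or 20-35° C. by species, and scored 0–100 (100 = no emergence/complete destruction) 20 DAT.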

Euphorbia heterophylla [6] = assay: Greenhouse post-emergence (POST) herbicidal test on EPHHL; details: POST
Summary of the method: as §6

Geranium pusillum = assay: Greenhouse post-emergence (POST) herbicidal test on GERPU; details: POST; for % activity: GERPU, 18 DAT
Summary of the method: as §6

Echinochloa crus-galli [7] = assay: Greenhouse pre-emergence (PRE) herbicidal test on ECHCG; details: PRE, ECHCG, 18 DAT
Digitaria sanguinalis = assay: Greenhouse post-emergence (POST) herbicidal test on DIGSA; details: POST, DIGSA, 18 DAT
Summary of the method: as §6

Echinochloa crus-galli [8] = assay: Greenhouse post-emergence (POST) herbicidal test on ECHCG; details: POST, ECHCG, 18 DAT
Summary of the method: as §6

Work on `CCNc1nc(Cl)nc(NC(C)(C)C)n1` [Terbutylazine] yielded a pest or weed control at 15.6 g/ha (Abutilon theophrasti [1]; Abutilon theophrasti, pre-emergence, 480 h, 15.6 gai/ha, 20 DAT) of 0%, a pest or weed control at 62.5 g/ha (Abutilon theophrasti [1]; Abutilon theophrasti, pre-emergence, 480 h, 62.5 gai/ha, 20 DAT) of 0% and a pest or weed control at 15.6 g/ha (Alopecurus myosuroides; Alopecurus myosuroides, pre-emergence, 480 h, 15.6 gai/ha, 20 DAT) of 0%. The pest or weed control at 62.5 g/ha (Alopecurus myosuroides; Alopecurus myosuroides, pre-emergence, 480 h, 62.5 gai/ha, 20 DAT) was 0%, the pest or weed control at 62.5 g/ha (Amaranthus retroflexus [2]; Amaranthus retroflexus, pre-emergence, 480 h, 62.5 gai/ha, 20 DAT) was 0% and the pest or weed control at 15.6 g/ha (Ambrosia artemisiifolia; 15.6 gai/ha) was 0%. It also gave a pest or weed control at 15.6 g/ha (Commelina benghalensis; Commelina benghalensis, pre-emergence, 480 h, 15.6 gai/ha, 20 DAT) of 0%, a pest or weed control at 62.5 g/ha (Commelina benghalensis; Commelina benghalensis, pre-emergence, 480 h, 62.5 gai/ha, 20 DAT) of 0% and a pest or weed control at 62.5 g/ha (Euphorbia heterophylla [3]; Euphorbia heterophylla, pre-emergence, 480 h, 62.5 gai/ha, 20 DAT) of 0%. It also gave a pest or weed control at 15.6 g/ha (Lolium multiflorum; Lolium multiflorum, pre-emergence, 480 h, 15.6 gai/ha, 20 DAT) of 0%, a pest or weed control at 62.5 g/ha (Abutilon theophrasti [4]; Abutilon theophrasti, post-emergence, 480 h, 62.5 gai/ha, 20 DAT) of 0% and a pest or weed control at 62.5 g/ha (Amaranthus retroflexus [5]; Amaranthus retroflexus, post-emergence, 480 h, 62.5 gai/ha, 20 DAT) of 60%. It also gave a pest or weed control at 15.6 g/ha (Ipomoea hederacea; 15.6 gai/ha) of 0%.

With `CC(C)N(C(=O)SCC(Cl)=C(Cl)Cl)C(C)C` [Tri-Allate, Tri-allate] the pest or weed control at 600 g/ha (Abutilon theophrasti [1]; Abutilon theophrasti, pre-emergence, 480 h, 600 gai/ha, 20 DAT) was 10%, the pest or weed control at 1200 g/ha (Alopecurus myosuroides; Alopecurus myosuroides, pre-emergence, 480 h, 1200 gai/ha, 20 DAT) was 0% and the pest or weed control at 600 g/ha (Amaranthus retroflexus [2]; Amaranthus retroflexus, pre-emergence, 480 h, 600 gai/ha, 20 DAT) was 10%. It also gave a pest or weed control at 1200 g/ha (Amaranthus retroflexus [2]; Amaranthus retroflexus, pre-emergence, 480 h, 1200 gai/ha, 20 DAT) of 10%, a pest or weed control at 600 g/ha (Ambrosia artemisiifolia; 600 gai/ha) of 10% and a pest or weed control at 1200 g/ha (Ambrosia artemisiifolia; 1200 gai/ha) of 25%. The pest or weed control at 600 g/ha (Commelina benghalensis; Commelina benghalensis, pre-emergence, 480 h, 600 gai/ha, 20 DAT) was 0%, the pest or weed control at 600 g/ha (Euphorbia heterophylla [3]; Euphorbia heterophylla, pre-emergence, 480 h, 600 gai/ha, 20 DAT) was 10% and the pest or weed control at 1200 g/ha (Euphorbia heterophylla [3]; Euphorbia heterophylla, pre-emergence, 480 h, 1200 gai/ha, 20 DAT) was 10%. The pest or weed control at 600 g/ha (Lolium multiflorum; Lolium multiflorum, pre-emergence, 480 h, 600 gai/ha, 20 DAT) was 0%, the pest or weed control at 1200 g/ha (Lolium multiflorum; Lolium multiflorum, pre-emergence, 480 h, 1200 gai/ha, 20 DAT) was 10% and the pest or weed control at 600 g/ha (Setaria viridis; Setaria viridis, pre-emergence, 480 h, 600 gai/ha, 20 DAT) was 0%. For the same compound, the pest or weed control at 1200 g/ha (Abutilon theophrasti [4]; Abutilon theophrasti, post-emergence, 480 h, 1200 gai/ha, 20 DAT) was 0%, the pest or weed control at 600 g/ha (Amaranthus retroflexus [5]; Amaranthus retroflexus, post-emergence, 480 h, 600 gai/ha, 20 DAT) was 25% and the pest or weed control at 1200 g/ha (Amaranthus retroflexus [5]; Amaranthus retroflexus, post-emergence, 480 h, 1200 gai/ha, 20 DAT) was 45%. It also gave a pest or weed control at 600 g/ha (Euphorbia heterophylla [6]; Euphorbia heterophylla, post-emergence, 480 h, 600 gai/ha, 20 DAT) of 10%, a pest or weed control at 1200 g/ha (Euphorbia heterophylla [6]; Euphorbia heterophylla, post-emergence, 480 h, 1200 gai/ha, 20 DAT) of 10% and a pest or weed control at 600 g/ha (Geranium pusillum; Geranium pusillum, post-emergence, 480 h, 600 gai/ha, 20 DAT) of 10%. The pest or weed control at 600 g/ha (Ipomoea hederacea; 600 gai/ha) was 10% and the pest or weed control at 1200 g/ha (Ipomoea hederacea; 1200 gai/ha) was 0%.

`Cc1ccc2c(c1)[C@H](Nc1nc(N)nc(C(C)F)n1)[C@@H](C)C2` (stereo partly shown) [Indaziflam, indaziflam] was tested, and the “% activity” value (Abutilon theophrasti [1]; Indaziflam solo 1 gai/ha) was 0%, the “% activity” value (Abutilon theophrasti [1]; Indaziflam solo 4 gai/ha) was 25% and the “% activity” value (Alopecurus myosuroides; Indaziflam solo 1 gai/ha) was 10%. The “% activity” value (Alopecurus myosuroides; Indaziflam solo 4 gai/ha) was 75%, the “% activity” value (Amaranthus retroflexus [2]; Indaziflam solo 1 gai/ha) was 10% and the “% activity” value (Amaranthus retroflexus [2]; Indaziflam solo 4 gai/ha) was 50%. For the same compound, the “% activity” value (Commelina benghalensis; Indaziflam solo 1 gai/ha) was 20%, the “% activity” value (Commelina benghalensis; Indaziflam solo 2 gai/ha) was 10% and the “% activity” value (Commelina benghalensis; Indaziflam solo 8 gai/ha) was 40%. The “% activity” value (Echinochloa crus-galli [7]; Indaziflam solo 1 gai/ha) was 30%, the “% activity” value (Echinochloa crus-galli [7]; Indaziflam solo 4 gai/ha) was 85% and the “% activity” value (Echinochloa crus-galli [7]; Indaziflam solo 8 gai/ha) was 80%. For the same compound, the “% activity” value (Euphorbia heterophylla [3]; Indaziflam solo 1 gai/ha) was 10%, the “% activity” value (Euphorbia heterophylla [3]; Indaziflam solo 4 gai/ha) was 5% and the “% activity” value (Lolium multiflorum; Indaziflam solo 1 gai/ha) was 10%. The “% activity” value (Lolium multiflorum; Indaziflam solo 2 gai/ha) was 10%, the “% activity” value (Lolium multiflorum; Indaziflam solo 4 gai/ha) was 40% and the “% activity” value (Setaria viridis; SETVI, Indaziflam solo 1 gai/ha, 18 DAT) was 40%. For the same compound, the “% activity” value (Abutilon theophrasti [4]; Indaziflam solo 2 gai/ha) was 15%, the “% activity” value (Abutilon theophrasti [4]; Indaziflam solo 4 gai/ha) was 30% and the “% activity” value (Amaranthus retroflexus [5]; AMARE, Indaziflam solo 1 gai/ha, 18 DAT) was 65%. The “% activity” value (Digitaria sanguinalis; Indaziflam solo 1 gai/ha) was 0%, the “% activity” value (Digitaria sanguinalis; Indaziflam solo 2 gai/ha) was 5% and the “% activity” value (Digitaria sanguinalis; Indaziflam solo 8 gai/ha) was 20%. The “% activity” value (Echinochloa crus-galli [8]; Indaziflam solo 1 gai/ha) was 0%, the “% activity” value (Echinochloa crus-galli [8]; Indaziflam solo 2 gai/ha) was 0% and the “% activity” value (Echinochloa crus-galli [8]; Indaziflam solo 4 gai/ha) was 20%. The “% activity” value (Echinochloa crus-galli [8]; Indaziflam solo 8 gai/ha) was 60%, the “% activity” value (Euphorbia heterophylla [6]; EPHHL, Indaziflam solo 4 gai/ha, 18 DAT) was 40% and the “% activity” value (Geranium pusillum; Indaziflam solo 4 gai/ha) was 50%. For the same compound, the “% activity” value (Geranium pusillum; Indaziflam solo 8 gai/ha) was 50%.
